We go through 20 compounds from US10221175B2, “Substituted pyrrolo[3,4-e]indolizines, imidazo[1,2-a]pyrrolo[3,4-e]pyridines, pyrrolo[3,4-e][1,2,4]triazolo[1,5-a]pyridines and pyrrolo[3,4-e][1,2,4]triazolo[4,3-a]pyridines as positive allosteric modulators of muscarinic acetylcholine receptor M1” (Vanderbilt University, priority 2015, dated 2019).

The structures appear in SMILES notation.

Broadly, the EC50 is the concentration giving half of the maximal effect.

For the experiment, the target named is T1, mAChR M1 (UniProt P11229).
T1 sequence (P11229 1-460): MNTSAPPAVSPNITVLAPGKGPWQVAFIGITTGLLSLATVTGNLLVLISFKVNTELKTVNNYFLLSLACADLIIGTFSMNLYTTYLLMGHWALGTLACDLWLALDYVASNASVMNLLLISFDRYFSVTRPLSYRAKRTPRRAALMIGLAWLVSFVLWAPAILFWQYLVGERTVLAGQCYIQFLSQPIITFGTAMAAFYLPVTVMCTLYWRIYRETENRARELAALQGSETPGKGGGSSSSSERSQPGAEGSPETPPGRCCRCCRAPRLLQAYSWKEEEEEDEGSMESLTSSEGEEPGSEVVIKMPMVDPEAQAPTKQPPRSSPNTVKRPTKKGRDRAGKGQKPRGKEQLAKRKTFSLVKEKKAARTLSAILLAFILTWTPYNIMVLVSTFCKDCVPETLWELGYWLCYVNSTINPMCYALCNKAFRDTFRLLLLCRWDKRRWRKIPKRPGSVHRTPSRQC
Kind of experiment: mAChR M1 cell-based functional assay (calcium mobilization, potentiation of EC20 acetylcholine response). The note with it: for M1 AChmax (%): maximal response as % of ACh maximum, CHO-K1 cells expressing M1; for EC50: positive allosteric modulator activity, concentration-dependent increase in EC20 acetylcholine response, CHO-K1 cells, >10 μM estimated where no plateau but >20% increase in ACh response. An excerpt:
Chinese hamster ovary (CHO-K1) cells stably expressing rat (r)M1 were purchased from the American Type Culture Collection and cultured according to their indicated protocol. CHO cells stably expressing human (h)M2, hM3, and hM5 were described previously (Levey, et al., 1991); hM1 and hM4 cDNAs were purchased from Missouri S&T cDNA Resource; rM4 cDNA was provided by T. I. Bonner (National Institutes of Health, Bethesda, Md.). rM2 and rM3 were cloned from a rat brain cDNA library and sequence verified. hM1, rM2, rM3, hM4, and rM4 cDNAs were used to stably transfect CHO-K1 cells purchased from the American Type Culture Collection using Lipofectamine2000. To make stable rM2, hM2, rM3, hM4, and rM4 cell lines for use in calcium mobilization assays, these cells also were stably transfected with a chimeric G-protein (Gqi5) (provided by B. R. Conklin, University of California, San Francisco) using Lipofectamine 2000. rM1, hM1, rM3, hM3, rM5, and hM5 cells were grown in Ham's F-12 medium containing 10% heat-inactivated fetal bovine serum (FBS), 20 mM HEPES, and 50 μg/mL G418 sulfate. rM2-Gqi5, hM2-Gqi5, and hM4-Gqi5 cells were grown in the same medium also containing 500 μg/mL Hygromycin B. Stable rM4-Gqi5 cells were grown in DMEM containing 10% heat-inactivated FBS, 20 mM HEPES, 400 μg/mL G418 sulfate, and 500 μg/mL Hygromycin B.
For high throughput measurement of agonist-evoked increases in intracellular calcium, CHO-K1 cells stably expressing muscarinic receptors were plated in growth medium lacking G418 and hygromycin at 15,000 cells/20 μL/well in Greiner 384-well black-walled, tissue culture (TC)-treated, clear-bottom plates (VWR). Cells were incubated overnight at 37° C. and 5% CO2. The next day, cells were washed using an ELX 405 (BioTek) with four washes (80 μL) of assay buffer then aspirated to 20 μL. Next, 20 μL of 16 μM Fluo-4/acetoxymethyl ester (Invitrogen, Carlsbad, Calif.) prepared as a 2.3 mM stock in DMSO and mixed in a 1:1 ratio with 10% (w/v) Pluronic F-127 and diluted in assay buffer was added to the wells and the cell plates were incubated for 50 min at 37° C. and 5% CO2. Dye was removed by washing with the ELX 405 (four 80 μL washes of assay buffer) then aspirated to 20 μL. Compound master plates were formatted in an 11 point CRC format (1:3 dilutions) in 100% DMSO with a starting concentration of 10 mM using the BRAVO liquid handler (Agilent). Test compound CRCs were then transferred to daughter plates (240 nL) using the Echo acoustic plate reformatter (Labcyte, Sunnyvale, Calif.) and then diluted into assay buffer (40 μL) to a 2× stock using a Thermo Fisher Combi (Thermo Fisher Scientific, Waltham, Mass.).
Calcium flux was measured using the Functional Drug Screening System (FDSS) 6000 (Hamamatsu Corporation, Tokyo, Japan) as an increase in the fluorescent static ratio. Compounds were applied to cells (20 μL, 2×) using the automated system of the FDSS 6000 at 4 s into the 300 s protocol and the data were collected at 1 Hz. At 144 s into the 300s protocol, 10 μL of an EC20 concentration of the muscarinic receptor agonist acetylcholine was added (5×), followed by the addition of 12 μL an EC8O concentration of acetylcholine at the 230 s time point (5×). Agonist activity was analyzed as a concentration-dependent increase in calcium mobilization upon compound addition. Positive allosteric modulator activity was analyzed as a concentration-dependent increase in the EC20 acetylcholine response. Antagonist activity was analyzed as a concentration-dependent decrease in the EC80 acetylcholine response. Concentration-response curves were generated using a four-parameter logistical equation in XLfit curve fitting software (IDBS, Bridgewater, N.J.) for Excel (Microsoft, Redmond, Wash.) or Prism (GraphPad Software, Inc., San Diego, Calif.). […]

As to `Cn1cc2c(-c3cc(F)c(CN4Cc5ccc6nncn6c5C4=O)c(F)c3)cccc2n1` [Compound 1, 7-(2,6-difluoro-4-(2-methyl-2h-indazol-4-yl)benzyl)-6,7-dihydro-8H-pyrrolo[3,4-e][1,2,4]triazolo [4,3-a]pyridin-8-one], the “M1 AChmax (%)” value was 72 (n = 2) %.

As for `Cn1cc2c(-c3ccc(CN4Cc5ccc6nncn6c5C4=O)c(F)c3)cccc2n1` [Compound 2, 7-(2-fluoro-4-(2-methyl-2H-indazol-4-yl)benzyl)-6,7-dihydro-8H-pyrrolo [3,4-e][1,2,4]triazol[4,3-a]pyridin-8-one], the “M1 AChmax (%)” value turned out to be 78% and the 50% effective concentration (EC50) is 688 nM. `Cn1cc(-c2cc(F)c(CN3Cc4ccc5nncn5c4C3=O)c(F)c2)cn1` [Compound 3]: the “M1 AChmax (%)” value was 83% and the concentration for a half-maximal effect (EC50) was 656 nM.

As for `O=C1c2c(ccc3nncn23)CN1Cc1ccc(-c2cnc3ccccc3c2)cc1F` [Compound 4], the “M1 AChmax (%)” value is 73% and the half-maximal effective concentration (EC50) was 1750 nM. Taken in the same sequence, the figures for `O=C1c2c(ccc3nncn23)CN1Cc1c(F)cc(-c2ccc3ncccc3c2)cc1F` [Compound 5] were 81% and 743 nM.

As to `Cn1cc2cc(-c3cc(F)c(CN4Cc5ccc6nncn6c5C4=O)c(F)c3)ccc2n1` [Compound 6], the “M1 AChmax (%)” value stood at 84% and the EC50 was 488 nM.

`COc1ccc(-c2cc(F)c(CN3Cc4ccc5nncn5c4C3=O)c(F)c2)cn1` [Compound 7]: the “M1 AChmax (%)” value is recorded as 70% and the half-maximal effective concentration (EC50) was 2640 nM.

Regarding `Cc1ccc(-c2ccc(CN3Cc4ccc5nncn5c4C3=O)c(F)c2)c2cn(C)nc12` [Compound 8], the “M1 AChmax (%)” value was determined as 82% and the EC50 was 1060 nM. For `Cn1cc2cc(-c3ccc(CN4Cc5ccc6nncn6c5C4=O)c(F)c3)ccc2n1` [Compound 9, 7-(2-fluoro-4-(2-methyl-2H-indazol-5-yl)benzyl)-6,7-dihydro-8H-pyrrolo [3,4-e][1,2,4]triazolo[4,3-a]pyridin-8-one], in that order: 90% and 502 nM.

For the compound `O=C1c2c(ccc3nncn23)CN1Cc1ccc(-c2ccc3ncccc3c2)cc1F` [Compound 10], the “M1 AChmax (%)” value is on record as 84% and the EC50 is 1570 nM.

For the compound `Cn1cc(-c2ccc(CN3Cc4ccc5nncn5c4C3=O)c(F)c2)cn1` [Compound 11], the “M1 AChmax (%)” value is listed as 86% and the EC50 was 856 nM. Taken in the same sequence, the figures for `O=C1c2c(ccc3nncn23)CN1Cc1c(F)cc(-c2cnc3ccccc3c2)cc1F` [Compound 13] were 57% and 1820 nM. Take `Cc1nnc2ccc3c(n12)C(=O)N(Cc1c(F)cc(-c2cnn(C)c2)cc1F)C3` [Compound 14]: the “M1 AChmax (%)” value amounted to 79% and the EC50 was 1790 nM. Taken in the same sequence, the figures for `Cc1nnc2ccc3c(n12)C(=O)N(Cc1c(F)cc(-c2ccc4nn(C)cc4c2)cc1F)C3` [Compound 15] were 76% and 1240 nM. `Cc1nnc2ccc3c(n12)C(=O)N(Cc1ccc(-c2ccc4nn(C)cc4c2)cc1F)C3` [Compound 16]: the “M1 AChmax (%)” value is given as 83% and the EC50 is 1210 nM. Turning to `Cc1cc(-c2ccc(CN3Cc4ccc5nncn5c4C3=O)c(F)c2)cc2cn(C)nc12` [Compound 17], the “M1 AChmax (%)” value came out at 81% and the EC50 was 618 nM. As for `Cc1ccc(-c2ccc(CN3Cc4ccc5nnc(C)n5c4C3=O)c(F)c2)c2cn(C)nc12` [Compound 18], the “M1 AChmax (%)” value was determined as 82% and the EC50 is 2140 nM. As to `Cc1nnc2ccc3c(n12)C(=O)N(Cc1c(F)cc(-c2cccc4nn(C)cc24)cc1F)C3` [Compound 19], the “M1 AChmax (%)” value came to 81% and the EC50 was 1410 nM. Regarding `Cc1cc(-c2ccc(CN3Cc4ccc5nnc(C)n5c4C3=O)c(F)c2)cc2cn(C)nc12` [Compound 20], the “M1 AChmax (%)” value stood at 84% and the concentration for a half-maximal effect (EC50) is 2100 nM. For `Cn1cc(-c2ccc(F)c(CN3Cc4ccc5nncn5c4C3=O)c2)cn1` [Compound 21], in that order: 36.8% and over 10000 nM.
